{"source": "patent US20220370380A1", "about": "“EXERCISE-INDUCED HEMOLYSIS SUPPRESSANT AND COMPOSITION FOR SUPPRESSING/IMPROVING EXERCISE-INDUCED HEMOLYTIC ANEMIA” (AstaReal Co., Ltd., priority 2019, published 2022)", "key": {"[1]": {"system": "men's medium- and long-distance runners", "experiment": "Confirmation test for suppression of exercise-induced hemolysis using astaxanthin", "assay_type": "in vivo, human", "conditions": "compared with control group", "experimental": "A confirmation test to confirm whether or not exercise-induced hemolysis that causes exercise-induced hemolytic anemia can be suppressed by orally taking a test food containing astaxanthin by a subject was conducted as follows.\nTwo types of test foods, a “capsules for astaxanthin group” containing a Haematococcus algae-derived pigment and a “capsules for control group” not containing the Haematococcus algae-derived pigment were prepared. Further, twenty-eight men's medium- and long-distance runners aged from 18 to 22 belonging to the athletic club of Tokai University as subjects were divided into two groups. Thirteen subjects were designated as the “astaxanthin group”, and fifteen subjects were designated as the “control group”. […]\nSpecifically, running training in the highlands was first conducted for 4 weeks, setting the period of running training in the highlands as “acclimatization period (Weeks 0 to 4)”, then blood samples were collected from the subjects of the “astaxanthin group” and the “control group”, to measure the number of erythrocytes (red blood cells), the hemoglobin content (amount of blood pigment; hemoglobin concentration), and the serum haptoglobin concentration. […] This test was conducted by observing the rate of change in the number of erythrocytes, the rate of change in the hemoglobin content (hemoglobin concentration), and the transition of the serum haptoglobin concentration from the start date to the end date of the observation period in each of the “astaxanthin group” and the “control group” thus measured. […]\nThe blood samples collected from the subjects of the “astaxanthin group” and the “control group” were treated with EDTA-2K to measure the number of erythrocytes using the sheath flow electrical resistance detection method. […] On the other hand, the collected blood samples were transferred to a tube containing EDTA-2Na and centrifuged to separate the plasma fraction, to measure the serum haptoglobin concentration using an ELISA kit for haptoglobin quantification (Quantikine Human Haptoglobin ELISA Kit (product code: DHAPGO), available from R&D Systems, Inc.). […]"}, "[2]": {"system": "men's medium- and long-distance runners", "experiment": "Confirmation test for suppression of hemolysis due to oxidative damage (urinary 8-OHdG and isoprostane production rate)", "assay_type": "in vivo, human", "text": "In order to confirm whether or not hemolysis due to oxidative damage is suppressed in the “astaxanthin group” of Example 1 (whether or not oxidative damage to erythrocytes (red blood cells) is suppressed), the production rate of 8-OHdG and isoprostane contained in the urine of the subjects of the “astaxanthin group” and the “control group” was investigated during the “test period” of Weeks 0 to 8 through the “acclimatization period (Weeks 0 to 4)” and the “observation period (Weeks 4 to 8)” of Example 1. The period of the confirmation test was set to the “test period” of Weeks 0 to 8 through the “acclimatization period (Weeks 0 to 4)” and the “observation period (Weeks 4 to 8)” because there was no causal relationship of whether or not hemolysis occurred due to oxidative damage with whether running training was performed in the highlands or flatlands.\nSpecifically, this test was performed as follows. Urine was collected from the subjects of the “astaxanthin group” and the “control group” at Week 0 (start date of test food intake), Week 4, and Week 8 (last day of test food intake), and the production rate of 8-OHdG and the production rate of isoprostane were measured. Thereafter, their averages were calculated, and then the transitions of the averages of the production rate of 8-OHdG and the production rate of isoprostane from Week 0 to Week 8 in each of the “astaxanthin group” and the “control group” thus calculated were observed.\nThe 8-OHdG concentration in the urine collected from the subjects of the “astaxanthin group” and the “control group” was measured using a New 8-OHdG Check ELISA (ELISA kit for 8-OHdG (product code: KOG-2005/E), available from NIKKEN SEIL Co., Ltd.) by an ELISA method. The production rate of 8-OHdG per body weight and time was calculated by the formula shown below.\nProduction rate of 8-OHdG (ng/kg/hr)={8-OHdG concentration in urine (ng/mL)×volume of urine collected (mL)}/{elapsed time since the last urination (h)×body weight of subject (kg)}\nThe isoprostane concentration in the urine collected from the subjects of the “astaxanthin group” and the “control group” was measured using a urinary isoprostane measurement ELISA kit (8-iso-PGF2a ELISA kit (product code: ADI-900-010), available from Enzo Life Sciences) by an ELISA method. The production rate of isoprostane per body weight and time was calculated by the formula shown below.\nProduction rate of isoprostane (ng/kg/hr)={isoprostane concentration in urine (ng/mL)×volume of urine collected (mL)}/{elapsed time since the last urination (h)×body weight of subject (kg)} […]"}, "[3]": {"system": "men's medium- and long-distance runners", "experiment": "Confirmation test for antioxidant capacity (serum total antioxidant capacity)", "assay_type": "in vivo, human", "conditions": "test period Week 0 to Week 8; astaxanthin group versus control group", "experimental": "In order to confirm the antioxidant capacity in the “astaxanthin group” of Example 1, the concentrations of water-soluble antioxidants contained in the serum of the subjects of the “astaxanthin group” and the “control group” were measured during the “test period” of Weeks 0 to 8 through the “acclimatization period (Weeks 0 to 4)” and the “observation period (Weeks 4 to 8)” of Example 1. The period of the confirmation test was set to the “test period” of Weeks 0 to 8 through the “acclimatization period (Weeks 0 to 4)” and the “observation period (Weeks 4 to 8)” because there was no causal relationship of the antioxidant capacity with whether running training was performed in the highlands or flatlands.\nSpecifically, this test was performed as follows. The blood samples were collected from the subjects of the “astaxanthin group” and the “control group” at Week 0 (start date of test food intake), Week 4, and Week 8 (last day of test food intake), to measure the concentrations of water-soluble antioxidants in serum and measure the total antioxidant capacity. Thereafter, the average was calculated, and the transition of the average of the total antioxidant capacity from Week 0 to Week 8 in each of the “astaxanthin group” and the “control group” thus calculated was observed. […]"}, "[4]": {"conditions": "cited from earlier work"}, "[5]": {"conditions": "literature: Takahashi et al. 2004; cited from earlier work"}, "ordinary people": {"system": "ordinary people", "experiment": "Changes in number of erythrocytes and hemoglobin content of ordinary people (FIG. 3)", "assay_type": "in vivo, human", "conditions": "between before and after taking the test food"}}, "note": "Where two headings read alike, the source gives them in different places."}
{"compound": "CC1=C(/C=C/C(C)=C/C=C/C(C)=C/C=C/C=C(C)/C=C/C=C(C)/C=C/C2=C(C)C(=O)C(O)CC2(C)C)C(C)(C)CC(O)C1=O", "note": "(stereo not drawn) [astaxanthin, 3,3′-dihydroxy-β,β-carotene-4,4′-dione]", "values": [{"measurement": "rate of change in the number of erythrocytes during the observation period", "setting": "[1]; astaxanthin 12 mg/day oral (free form), observation period Weeks 4 to 8, running training in flatlands", "result": "high"}, {"measurement": "serum haptoglobin concentration on the start date of the observation period", "setting": "[1]; astaxanthin 12 mg/day oral, Week 4", "result": "almost no difference"}, {"measurement": "serum haptoglobin concentration on the end date of the observation period", "setting": "[1]; astaxanthin 12 mg/day oral, Week 8", "result": "extremely high"}, {"measurement": "rate of change in the hemoglobin content (hemoglobin concentration) during the observation period", "setting": "[1]; astaxanthin 12 mg/day oral, observation period Weeks 4 to 8, running training in flatlands", "result": "also high"}, {"measurement": "average of measured values of the production rate of isoprostane (urine)", "setting": "[2]; Week 0, astaxanthin group compared with control group", "result": "low"}, {"measurement": "average of measured values of the production rate of isoprostane (urine)", "setting": "[2]; Week 4 and Week 8, astaxanthin group versus control group", "result": "no difference observed"}, {"measurement": "average production rate (urine marker), comparison between before and after taking the test food", "setting": "[2]; after intake compared with before intake (Week 0), within astaxanthin group", "result": "increased after intake"}, {"measurement": "average of measured values of the production rate of 8-OHdG (urine)", "setting": "[2]; test period Week 0 to Week 8, astaxanthin group versus control group", "result": "no significant difference"}, {"measurement": "average of measured values of the total antioxidant capacity (serum)", "setting": "[3]", "result": "no significant difference"}, {"measurement": "antioxidant activity relative to vitamin E", "setting": "[4]", "result": 1000, "unit": "times"}, {"measurement": "antioxidant activity relative to vitamin E", "setting": "[4]; listed as Astaxanthin", "result": "about 1,000 times"}, {"measurement": "antioxidant activity relative to β-carotene", "setting": "[4]; relative to β-carotene", "result": "about 40 times"}, {"measurement": "mutagenicity", "setting": "[5]", "result": "no mutagenicity observed"}, {"measurement": "hemoglobin content (hemoglobin concentration)", "setting": "ordinary people", "result": "no significant difference"}, {"measurement": "number of erythrocytes", "setting": "ordinary people", "result": "no significant difference"}]}
